{"source": "patent US20250295627A1", "about": "(Leibniz-Institut Fuer Neurobiologie, priority 2022, published 2025)", "key": {"[1]": {"type": "in vivo, mouse", "settings": "50 mg/kg daily oral, treated versus control animals", "excerpt": "(§1) . For TBA2.1 mice (both sexes), treatment started at the age of 4 weeks. The animals were group housed and force fed for 4 weeks. […] Treatment in 5×FAD male mice started at the age of 12 weeks. Here, animals were single housed right away and given a choice between voluntary and forced feeding. […] During the course of the 7th week of treatment, animals were either subjected to perfusion to obtain their brains for subsequent immunohistochemistry or they were culled to obtained native brains for electrophysiological recordings."}, "pCREB": {"system": "pCREB", "assay": "Aβ-induced CREB shutoff (nuclear pCREB) in hippocampal primary neurons", "type": "cell-based, rat", "protocol": "Hippocampal and cortical cultures were prepared from Wistar rat embryos (E18) of mixed sex as described previously (Spilker et al., 2016). Briefly, dissected were digested for 15 min with trypsin at 37° C. Neurons were plated on plastic 12-well dishes (Greiner) on glass coverslips coated with poly-L-lysine (Sigma-Aldrich) at a density of 60 000 cells/well in DMEM medium (Gibco, Thermo Fisher Scientific) supplemented with 10% FCS, 1× penicillin/streptomycin, and 2 mM glutamine. After 1 h incubation (at the 37° C., 5% CO2, 95% humidity) cells were kept in BrainPhys medium supplemented with 1% SM1 (Stemmcell Technologies), 0.5 mM Glutamine (Gibco) at 37° C., 5% CO2 and 95% humidity. […]\nFor quantitation of nuclear staining intensity (pCREB or CREB) somatic regions were sequentially scanned using the 63× objective (Leica) in both: Leica TCS SP8-STED and Leica TCS SP5 systems. […] Unprocessed images were analysed using Fiji/ImageJ software (Schindelin et al., 2012). For visualization of the quantified channel a fire look-up table (LUT) was used. Synaptic density was quantified in secondary dendrites using Fiji/ImageJ (Schindelin et al., 2012). […] Intensity of the GluA1 channel was measured in ROIs defined by a Shank3 mask as a readout for surface AMPAR expression."}, "TBA2.1 and 5×FAD mice [2]": {"system": "TBA2.1 and 5×FAD mice", "assay": "Novel object recognition and location", "type": "in vivo, mouse", "excerpt": "as §1\nThe hippocampus-dependent memory was assessed using a novel object location and novel object recognition tasks. Assays were performed as described elsewhere (Andres-Alonso et al., 2019). Briefly, training and testing were done in an open field square arena made out of plastic (50 cm×50 cm). The mice were habituated in the empty arena for 20 min. Subsequently, 2 identical objects were introduced to the maze and the animals could explore the objects in 2 training session, 20 min each. 2 h afterwards, in the memory test phase, one object was replaced with an unfamiliar, unknown object (novel object recognition). Afterwards, the location of one object was changed ([…]). During all sessions, the amount of time the animals explored the objects was recorded, and a discrimination index was calculated using the formula DI=[(Tnew−Tfamiliar)/(Tnew+Tfamiliar)]*100. The arena was cleaned with 5% ethanol before and after each animal was tested."}, "TBA2.1 and 5×FAD mice [3]": {"system": "TBA2.1 and 5×FAD mice", "assay": "Amyloid load (amyloid-β positive puncta) in CA1 after oral Nitarsone", "type": "in vivo, mouse", "protocol": "Animals were anesthetized with ketamine/xylazine (Medistar) and transcardially perfused with 0.9% saline followed by 4% PFA. The brains were post-fixed in 4% PFA in PBS overnight, followed by immersion in 0.5 M sucrose for 24 h and then 1M sucrose for another 1 to 2 days or until the brains were sunken down. The brains were snap-frozen and cut into 35 μm thick coronal cryosections (Leica CM3050S, Leica-Microsystems). The sections were blocked in a buffer (0.3% TX-100, 10% NGS in PBS) for 30 min at RT, and incubated with primary antibodies diluted in the blocking solution, overnight at 4° C. Secondary antibodies were applied for 2 h at RT. Sections were counterstained with DAPI and mounted in Mowiol 4-88 (Merck Chemicals). For the detection of Aβ, the heat-based antigen retrieval method was used. […]\nAll quantifications were done within the distal CA1 region of the hippocampus. […] CREB and pCREB immunoreactivity of every single nucleus in a 100 μm stretch was measured in arbitrary units of pixel intensity. […] The neuronal loss was quantified based on NeuN staining (the number of neurons/CA1 length). For the quantification of microglia and astrocytes the number of cells based on overlaid DAPI and Iba-1 or GFAP signal was quantified within the rectangular ROI. Aβ plaques were counted in the region where the neuronal loss was quantified."}, "[4]": {"system": "hippocampal primary neurons", "assay": "Whole-cell voltage-clamp recording of mEPSCs", "type": "cell-based, rat"}}, "data": [{"compound": "O=[N+]([O-])c1ccc([As](=O)(O)O)cc1", "note": "[Nitarsone, (4-nitrophenyl) arsonic acid]", "values": [{"measurement": "body weight", "setting": "[1]", "value": "no effect on the body weight"}, {"measurement": "CREB shutoff induced by Aβ oligomers for 48 h", "setting": "pCREB; 5 µM co-application, 500 nM Aβ oligomers, 48 h", "value": "rescued CREB shutoff"}, {"measurement": "acute Aβ-induced CREB shutoff", "setting": "pCREB; 10 μM bath application, 30 min prior or 2 h after 500 nM Aβ for 2 h", "value": "prevented acute Aβ-induced CREB shutoff"}, {"measurement": "memory in novel location recognition task", "setting": "TBA2.1 and 5×FAD mice [2]; 5×FAD mice", "value": "rescued memory"}, {"measurement": "memory in novel object recognition task", "setting": "TBA2.1 and 5×FAD mice [2]; 5×FAD mice", "value": "rescued memory"}, {"measurement": "memory in novel location recognition task", "setting": "TBA2.1 and 5×FAD mice [2]; TBA2.1 mice", "value": "rescued memory"}, {"measurement": "memory in novel object recognition task", "setting": "TBA2.1 and 5×FAD mice [2]; TBA2.1 mice", "value": "rescued memory"}, {"measurement": "amyloid load", "setting": "TBA2.1 and 5×FAD mice [3]; 5×FAD mice", "value": "did not detect any effects"}, {"measurement": "amyloid load", "setting": "TBA2.1 and 5×FAD mice [3]; TBA2.1 mice", "value": "did not detect any effects"}, {"measurement": "mEPSC amplitude", "setting": "[4]; co-application of 5 µM Nitarsone with 500 nM Aβ1-42, 48 h", "value": "restored mEPSC amplitude"}, {"measurement": "mEPSC amplitude and frequency", "setting": "[4]; drug alone, 5 µM, 48 h", "value": "no effect on both measures"}]}]}
